± gives the standard deviation of the averaged measurements.
Columns and labels:
Experiment in all cases: level (log10 ratio to DMSO vehicle control); higher = higher biomarker level / cell amount than vehicle control
Conditions in all cases: in DMSO
[1] = compound: C=C(C)C(=O)OCC(F)(F)C(F)(F)C(F)(F)C(F)(F)C(F)(F)C(F)(F)C(F)(F)F
Outline: (§1)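 Readouts were ELISA for biomarkers, sulforhodamine B for cell amount and Alamar Blue for PBMC viability/proliferation. These were taken after BioMAP Diversity Plus human primary cell co-cultures were given test substances 1 h before cytokine or activator stimulation and incubated 24 h (MyoF 48 h; BT 72 h, or 6 d for secreted IgG). Each well was divided by the mean of 8 same-plate DMSO wells, log10 transformed, and blinded duplicates were averaged.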

[2] = compound: O=C(O)CCC(F)(F)C(F)(F)C(F)(F)C(F)(F)C(F)(F)F [2H,2H,3H,3H-Perfluorooctanoic acid]
Outline: as §1

[3] = compound: O=S(=O)(O)C(F)(F)C(F)(F)C(F)(F)C(F)(F)F [Perfluorobutanesulfonic acid]
Outline: as §1

In the case of KF3CT:SRB, the “level (log10)” value ([1]; 6700 nM) is reported as -0.0185 ± 0.0092, the “level (log10)” value ([1]; 20000 nM) is reported as -0.015 ± 0.011 and the “level (log10)” value ([2]; 6700 nM) is reported as -0.006 ± 0.0014. The “level (log10)” value ([2]; 20000 nM) was -0.0015 ± 0.005, the “level (log10)” value ([2]; 60000 nM) was 0.006 ± 0.0085 and the “level (log10)” value ([3]; 6700 nM) was 0.002 ± 0.0042. The “level (log10)” value ([3]; 20000 nM) was 0 ± 0.0014 and the “level (log10)” value ([3]; 60000 nM) was 0 ± 0.0014.
In the case of CASM3C:SRB, the “level (log10)” value ([1]; 6700 nM) is reported as -0.0005 ± 0.00071, the “level (log10)” value ([1]; 20000 nM) is reported as 0 ± 0.0071 and the “level (log10)” value ([2]; 6700 nM) is reported as -0.0045 ± 0.015. The “level (log10)” value ([2]; 20000 nM) was -0.0105 ± 0.00071, the “level (log10)” value ([2]; 60000 nM) was -0.0105 ± 0.0021 and the “level (log10)” value ([3]; 6700 nM) was -0.0045 ± 0.0035. The “level (log10)” value ([3]; 20000 nM) was -0.0045 ± 0.0035 and the “level (log10)” value ([3]; 60000 nM) was -0.008 ± 0.0028.
In the case of KF3CT:CXCL10/IP-10, the “level (log10)” value ([1]; 6700 nM) is reported as 0.0075 ± 0.005, the “level (log10)” value ([1]; 20000 nM) is reported as -0.015 ± 0.011 and the “level (log10)” value ([2]; 6700 nM) is reported as -0.0045 ± 0.0021. For the same test system, the “level (log10)” value ([2]; 20000 nM) was -0.0125 ± 0.0078, the “level (log10)” value ([2]; 60000 nM) was -0.0185 ± 0.011 and the “level (log10)” value ([3]; 6700 nM) was 0.0305 ± 0.025. For the same test system, the “level (log10)” value ([3]; 20000 nM) was 0.0385 ± 0.028 and the “level (log10)” value ([3]; 60000 nM) was 0.0405 ± 0.019.
With MyoF:TIMP-1 the “level (log10)” value ([1]; 6700 nM) was 0.0225 ± 0.029, the “level (log10)” value ([1]; 20000 nM) was 0.035 ± 0.017 and the “level (log10)” value ([2]; 6700 nM) was -0.035 ± 0.088. The “level (log10)” value ([2]; 20000 nM) was -0.0365 ± 0.087, the “level (log10)” value ([2]; 60000 nM) was -0.0155 ± 0.071 and the “level (log10)” value ([3]; 6700 nM) was 0.012 ± 0.014. The “level (log10)” value ([3]; 20000 nM) was 0.009 ± 0.0085 and the “level (log10)” value ([3]; 60000 nM) was 0.0205 ± 0.00071.
CASM3C:CD141/Thrombomodulin was tested, and the “level (log10)” value ([1]; 6700 nM) was 0.002 ± 0.048, the “level (log10)” value ([1]; 20000 nM) was -0.0265 ± 0.035 and the “level (log10)” value ([2]; 6700 nM) was -0.01 ± 0.04. For the same test system, the “level (log10)” value ([2]; 20000 nM) was -0.036 ± 0.052, the “level (log10)” value ([2]; 60000 nM) was -0.014 and the “level (log10)” value ([3]; 6700 nM) was 0.01 ± 0.028. The “level (log10)” value ([3]; 20000 nM) was -0.0095 ± 0.016 and the “level (log10)” value ([3]; 60000 nM) was 0.0075 ± 0.016.
For KF3CT:CCL2/MCP-1, the “level (log10)” value ([1]; 6700 nM) was -0.016 ± 0.025, the “level (log10)” value ([1]; 20000 nM) was 0.0325 ± 0.03 and the “level (log10)” value ([2]; 6700 nM) was -0.026. The “level (log10)” value ([2]; 20000 nM) was 0.0135 ± 0.016, the “level (log10)” value ([2]; 60000 nM) was -0.0235 ± 0.069 and the “level (log10)” value ([3]; 6700 nM) was -0.032 ± 0.017. For the same test system, the “level (log10)” value ([3]; 20000 nM) was -0.0095 ± 0.026 and the “level (log10)” value ([3]; 60000 nM) was 0.0135 ± 0.083.
HDF3CGF:PAI-I was tested, and the “level (log10)” value ([1]; 6700 nM) was 0.011 ± 0.0099, the “level (log10)” value ([1]; 20000 nM) was 0.0095 ± 0.019 and the “level (log10)” value ([2]; 6700 nM) was 0.0145 ± 0.016. The “level (log10)” value ([2]; 20000 nM) was -0.004 ± 0.011, the “level (log10)” value ([2]; 60000 nM) was -0.0085 ± 0.0078 and the “level (log10)” value ([3]; 6700 nM) was -0.017 ± 0.034. The “level (log10)” value ([3]; 20000 nM) was 0.007 ± 0.045 and the “level (log10)” value ([3]; 60000 nM) was -0.0075 ± 0.03.
In the case of CASM3C:CD142/Tissue Factor, the “level (log10)” value ([1]; 6700 nM) is reported as 0.002 ± 0.0057, the “level (log10)” value ([1]; 20000 nM) is reported as -0.0195 ± 0.0021 and the “level (log10)” value ([2]; 6700 nM) is reported as -0.0115 ± 0.022. For the same test system, the “level (log10)” value ([2]; 20000 nM) was -0.0505 ± 0.0092, the “level (log10)” value ([2]; 60000 nM) was -0.0095 ± 0.022 and the “level (log10)” value ([3]; 6700 nM) was -0.0085 ± 0.0035. For the same test system, the “level (log10)” value ([3]; 20000 nM) was -0.0115 ± 0.018 and the “level (log10)” value ([3]; 60000 nM) was 0.0135 ± 0.012.
For HDF3CGF:EGFR, the “level (log10)” value ([1]; 6700 nM) was 0.0245 ± 0.005, the “level (log10)” value ([1]; 20000 nM) was -0.007 ± 0.048 and the “level (log10)” value ([2]; 6700 nM) was -0.055 ± 0.025. The “level (log10)” value ([2]; 20000 nM) was -0.0435 ± 0.037, the “level (log10)” value ([2]; 60000 nM) was -0.0205 ± 0.03 and the “level (log10)” value ([3]; 6700 nM) was 0.0105 ± 0.005. For the same test system, the “level (log10)” value ([3]; 20000 nM) was -0.032 ± 0.048 and the “level (log10)” value ([3]; 60000 nM) was -0.0205 ± 0.032.
In the case of lMphg:CXCL8/IL-8, the “level (log10)” value ([1]; 6700 nM) is reported as -0.042 ± 0.021, the “level (log10)” value ([1]; 20000 nM) is reported as -0.0315 ± 0.047 and the “level (log10)” value ([2]; 6700 nM) is reported as -0.017 ± 0.023. For the same test system, the “level (log10)” value ([2]; 20000 nM) was 0.066 ± 0.04, the “level (log10)” value ([2]; 60000 nM) was 0.115 ± 0.018 and the “level (log10)” value ([3]; 6700 nM) was 0.022 ± 0.0028. The “level (log10)” value ([3]; 20000 nM) was 0.06 ± 0.0085 and the “level (log10)” value ([3]; 60000 nM) was 0.183 ± 0.0099.
With CASM3C:IL-6 the “level (log10)” value ([1]; 6700 nM) was -0.0235 ± 0.0092, the “level (log10)” value ([1]; 20000 nM) was 0.015 ± 0.013 and the “level (log10)” value ([2]; 6700 nM) was -0.0035 ± 0.0064. The “level (log10)” value ([2]; 20000 nM) was -0.008 ± 0.0057, the “level (log10)” value ([2]; 60000 nM) was 0.0145 ± 0.05 and the “level (log10)” value ([3]; 6700 nM) was -0.032 ± 0.028. For the same test system, the “level (log10)” value ([3]; 20000 nM) was -0.0375 ± 0.0021 and the “level (log10)” value ([3]; 60000 nM) was -0.015 ± 0.0057.
